Laboratory results from patent US20230181578A1, “MODULATION OF MIXED LINEAGE KINASE DOMAIN-LIKE PROTEIN SIGNALING” (EBERHARD KARLS UNIVERSITÄT TÜBINGEN, priority 2020, published 2023).
Numbering of substitutions follows the chain as printed.

What was measured:
phosphorylated MLKL [1] = experiment: MLKL phosphorylation, Western-blot, TSZ-treated HT-29 wt cells; type: cell-based, human; settings: FIG. 6C
Description: (§1) A-B) Dose-dependence of the inhibitory effect of MBA-h1 (A) or MBA-m1M (B) on necroptotic cell death in human (HT-29) and mouse (NIH-3T3) cells. C-D) Effect of MBA-h1 (C) or MBA-m1 (D) on MLKL phosphorylation. E-F) Effect of MBA-h1 (E) or MBA-m1 (F) on MLKL translocation to the plasma membrane. HT-29 (C and E) or NIH-3T3 (D and F) wt cells were TSZ-treated in the presence or not of the inhibitors. NSA was used as a control in C and E. G) Inhibitory effect of MBA-m1 in MLKL ko cells transfected with mMLKL2 or the mutant mMLKL2_I84A_F87A. Cells were transfected with the different variants of MLKL-GFP. The dead cell population was calculated from transfected cells. Individual values from at least three independent experiments are shown. H-I) MBA-m1 ameliorates dermatitis in Tnfr1-KO HoipE-KO mice. H) Representative images of mice before and after 2 weeks' treatment with MBA-m1. I) Severity score of dermatitis assessed after and before treatment with the inhibitor. […] To quantify the sore of region affected, 0 values were assigned to no lesion, and 1 values were assigned when lesions were found in either neck, back, flank or head, being the sum of these elements taken as the final score. To quantify the character of lesions, 0 values were assigned to no lesions, 1 to excoriations one or small punctuate crust, 2 to multiple punctuate crust or coalescing crust, 3 to erosion, ulceration or bleeding. […]

HT-29 = experiment: Necroptosis inhibition assay, TSZ-treated human HT-29 cells; type: cell-based
Description: (§2) A-B) Dose-dependence of the inhibitory effect of MBA-h1 (A) or MBA-m1M (B) on necroptotic cell death in human (HT-29) and mouse (NIH-3T3) cells. C-D) Effect of MBA-h1 (C) or MBA-m1 (D) on MLKL phosphorylation. E-F) Effect of MBA-h1 (E) or MBA-m1 (F) on MLKL translocation to the plasma membrane. HT-29 (C and E) or NIH-3T3 (D and F) wt cells were TSZ-treated in the presence or not of the inhibitors. NSA was used as a control in C and E. G) Inhibitory effect of MBA-m1 in MLKL ko cells transfected with mMLKL2 or the mutant mMLKL2_I84A_F87A. Cells were transfected with the different variants of MLKL-GFP. The dead cell population was calculated from transfected cells. Individual values from at least three independent experiments are shown. H-I) MBA-m1 ameliorates dermatitis in Tnfr1-KO HoipE-KO mice. H) Representative images of mice before and after 2 weeks' treatment with MBA-m1. I) Severity score of dermatitis assessed after and before treatment with the inhibitor. Tnfr1-KO HoipE-KO (n=3). To quantify the sore of region affected, 0 values were assigned to no lesion, and 1 values were assigned when lesions were found in either neck, back, flank or head, being the sum of these elements taken as the final score. To quantify the character of lesions, 0 values were assigned to no lesions, 1 to excoriations one or small punctuate crust, 2 to multiple punctuate crust or coalescing crust, 3 to erosion, ulceration or bleeding. Data are presented as mean values±s.e.m.
(§3) To evaluate the necroptotic potential of the different mMLKL isoforms, each of the three isoforms were re-expressed in NIH-3T3 MLKL knock out (ko) cells following induction of necroptosis with a mixture of TNF, a Smac mimetic compound (LCL-161) and the pan-caspase inhibitor zVAD (TSZ), which is the most commonly used necroptosis-inducing cocktail. The inventors quantified cell death by flow cytometry (FIG. 1B) and confocal microscopy (FIG. 1C) using propidium iodide (PI) as a marker of irreversible plasma membrane disruption. As expected, mMLKL3 was intrinsically active, on account of its lack of the psK domain. […]

hMLKL1 = target: T1, hMLKL1 (Homo sapiens, UniProt Q8NB16); experiment: Necroptosis inhibition in HT-29 MLKL ko cells re-expressing hMLKL1; type: cell-based; settings: HT-29 MLKL ko re-expressing hMLKL1
T1 construct: GFP; expressed in transfected cells; host or cells: HT-29 MLKL ko cells
T1 sequence (Q8NB16 1-471): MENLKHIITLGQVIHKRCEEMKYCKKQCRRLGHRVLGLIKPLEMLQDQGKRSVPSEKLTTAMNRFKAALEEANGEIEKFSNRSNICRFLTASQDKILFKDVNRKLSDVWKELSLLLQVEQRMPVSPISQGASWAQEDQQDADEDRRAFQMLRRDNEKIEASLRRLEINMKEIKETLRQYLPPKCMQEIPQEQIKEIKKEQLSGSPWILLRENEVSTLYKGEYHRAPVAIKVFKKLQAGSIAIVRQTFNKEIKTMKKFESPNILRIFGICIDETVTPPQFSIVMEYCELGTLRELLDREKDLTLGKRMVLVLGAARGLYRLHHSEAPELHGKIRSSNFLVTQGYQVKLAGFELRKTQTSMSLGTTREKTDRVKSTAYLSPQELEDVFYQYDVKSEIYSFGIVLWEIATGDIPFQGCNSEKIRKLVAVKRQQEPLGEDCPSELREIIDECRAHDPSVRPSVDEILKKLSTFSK
Description: The species-specificity was expected considering the large difference in the He/groove interactions between mouse and human MLKL (FIGS. 3 and 4).

MLKL [2] = experiment: MLKL translocation to the plasma membrane, TSZ-treated HT-29 wt cells; type: cell-based, human; settings: FIG. 6E
Description: as §1

mMLKL2 = target: T2, mMLKL2 (Mus musculus, UniProt Q9D2Y4); experiment: Necroptosis inhibition in NIH MLKL ko cells containing mMLKL2; type: cell-based
T2 construct: GFP; expressed in transfected cells; host or cells: NIH-3T3 MLKL ko cells
T2 sequence (Q9D2Y4 1-464 isoform Q9D2Y4-2): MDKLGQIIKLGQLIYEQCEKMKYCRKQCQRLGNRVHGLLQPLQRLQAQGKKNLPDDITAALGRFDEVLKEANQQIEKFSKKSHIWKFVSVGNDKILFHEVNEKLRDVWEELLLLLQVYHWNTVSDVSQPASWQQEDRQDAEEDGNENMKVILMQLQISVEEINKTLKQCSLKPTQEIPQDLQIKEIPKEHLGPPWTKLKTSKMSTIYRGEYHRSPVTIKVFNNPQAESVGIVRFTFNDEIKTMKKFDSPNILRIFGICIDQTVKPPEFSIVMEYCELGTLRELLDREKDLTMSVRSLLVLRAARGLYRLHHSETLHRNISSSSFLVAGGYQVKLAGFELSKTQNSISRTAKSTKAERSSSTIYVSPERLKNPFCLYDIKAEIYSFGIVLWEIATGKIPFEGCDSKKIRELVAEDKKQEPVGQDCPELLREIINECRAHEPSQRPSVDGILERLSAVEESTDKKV
Description: as §1

Tnfr1KO;HoipEKO mice = experiment: Necroptosis-driven dermatitis in Tnfr1KO;HoipEKO mice; type: in vivo, mouse; settings: treated daily for three weeks from 30 to 40 days of age, end of treatment
Description: as §2, with “H) Representative images of mice before and after 2 weeks' treatment with MBA-m1.” left out, “values±s.e.m. […]” for “values±s.e.m.”

MLKL [3] = experiment: MLKL translocation to the plasma membrane, TSZ-treated NIH-3T3 wt cells; type: cell-based, mouse; settings: FIG. 6F
Description: as §1

NIH-3T3 WT cells = experiment: Necroptosis inhibition assay, TSZ-treated mouse NIH-3T3 WT cells; type: cell-based
Description: as §2, §3

phosphorylated MLKL [4] = experiment: MLKL phosphorylation, Western-blot, TSZ-treated NIH-3T3 wt cells; type: cell-based, mouse; settings: FIG. 6D
Description: as §1

mMLKL2_I84A_F87A = target: T3, mMLKL2_I84A_F87A (Mus musculus, UniProt Q9D2Y4, F87A/I84A); experiment: Cell death assay in MLKL ko cells transfected with mutant mMLKL2_I84A_F87A; type: cell-based; settings: FIG. 6G
T3 construct: GFP; expressed in transfected cells
T3 sequence (Q9D2Y4 1-464 isoform Q9D2Y4-2 I84A/F87A): T2 sequence (Q9D2Y4 1-464 isoform Q9D2Y4-2) with I84A, F87A
Description: as §1

Row | Compound | effect on MLKL phosphorylation (phosphorylated MLKL [1]) | concentrations at which inhibitory activity was observed (HT-29; HT-29 cells, FIG. 6A) | toxicity (HT-29; at inhibitory concentrations, FIG. 6A) | inhibition of necroptosis (HT-29; human HT-29 cells, dose-dependent (FIG. 6A)) | inhibition of necroptosis (hMLKL1) | effect on MLKL translocation to the plasma membrane (MLKL [2]) | inhibition of necroptosis (mMLKL2) | dermatitis, severity score of skin lesions (Tnfr1KO;HoipEKO mice) | effect on MLKL translocation to the plasma membrane (MLKL [3]) | concentrations at which necroptosis is inhibited (NIH-3T3 WT cells; NIH-3T3 cells, FIG. 6B, compared with MBA-h1 (lower than 10 μM)) | concentrations at which toxicity was presented (NIH-3T3 WT cells; higher concentrations, FIG. 6B) | inhibition of necroptosis (NIH-3T3 WT cells; mouse NIH-3T3 WT cells, dose-dependent (FIG. 6B)) | effect on MLKL phosphorylation (phosphorylated MLKL [4]) | inhibition of cell death mediated by mutant mMLKL2_I84A_F87A (mMLKL2_I84A_F87A)
1 | CN1CCN(c2ccc(-c3cccc(NC(=O)c4ccc5ccccc5c4)c3)nn2)CC1 [MBA-h1, N-[3-[6-(4-methylpiperazin-1-yl)pyridazin-3-yl]phenyl]naphthalene-2-carboxamide] | none of the compounds blocked the phosphorylation of MLKL | lower than 10 μM | without evidence of toxicity | specifically inhibited necroptosis | inhibited necroptosis | potently interfered with MLKL translocation to the plasma membrane |  |  |  |  |  |  |  | 
2 | COc1ccc2nc(C)cc(Nc3ccc(Oc4ccc5ccccc5c4)c(Cl)c3)c2c1 [MBA-m1, N-(3-chloro-4-naphthalen-2-yloxyphenyl)-6-methoxy-2-methylquinolin-4-amine] |  |  |  |  |  |  | had the same effect | significantly ameliorated dermatitis | potently interfered with MLKL translocation to the plasma membrane | able to inhibit necroptosis at similar concentrations | 12.5 to 50 µM | specifically inhibited necroptosis | none of the compounds blocked the phosphorylation of MLKL | inert to inhibition
3 | COc1nccnc1NS(=O)(=O)c1ccc(NC(=O)/C=C/c2ccc([N+](=O)[O-])s2)cc1 [NSA, reference compound] |  |  |  |  |  | interfered with MLKL translocation to the plasma membrane |  |  |  |  |  |  |  | 
